Experimental data published in ChEMBL document CHEMBL5385959, “Trifluoroacetic acid-mediated synthesis of xanthene constructs and their extensive anti-tuberculosis evaluation” (RSC Med Chem, 2024).
Values after ≈ are worked out from the molar mass of the structure shown. Active and inactive are the calls of the source. No cut-off for these calls is given here.

Key:
Escherichia coli = assay: Antibacterial activity against Escherichia coli assessed as reduction in bacterial growth incubated for 24 hrs by broth dilution method; assay type: functional
Pseudomonas aeruginosa = assay: Antibacterial activity against Pseudomonas aeruginosa assessed as reduction in bacterial growth incubated for 24 hrs by broth dilution method; assay type: functional
Bacillus subtilis = assay: Antibacterial activity against Bacillus subtilis assessed as reduction in bacterial growth incubated for 24 hrs by broth dilution method; assay type: functional
[1] = test system: Mycobacterium tuberculosis; assay: Antibacterial activity against Mycobacterium tuberculosis H37Rv assessed as reduction in bacterial growth incubated for 14 days by CLSI protocol based method; assay type: functional; settings: 336 h, time 14 day
[2] = test system: Mycobacterium tuberculosis; assay: Antibacterial activity against Mycobacterium tuberculosis H37Ra assessed as reduction in bacterial growth incubated for 14 days by CLSI protocol based method; assay type: functional; settings: 336 h, time 14 day
[3] = test system: Mycobacterium tuberculosis; assay: Antibacterial activity against Mycobacterium tuberculosis H37Rv assessed as reduction in bacterial growth by broth microdilution method; assay type: functional
[4] = test system: Mycobacterium tuberculosis; assay: Antibacterial activity against GFP-tagged Mycobacterium tuberculosis H37Rv assessed as reduction in GFP expression at half times MIC incubated for 7 days by confocal microscopic analysis; assay type: functional, organism-based; settings: time 7.0 day

CC1(C)CC(=O)C2=C(C1)OC1=C(C(=O)CC(C)(C)C1)C2c1ccc(O)cc1 was tested, and the MIC (Escherichia coli) was over 128 µg/mL, the MIC (Pseudomonas aeruginosa) was over 128 µg/mL and the MIC (Bacillus subtilis) was over 128 µg/mL. For the same compound, the MIC [1] was 64 µg/mL (≈ 175 µM) and the MIC [2] was 64 µg/mL (≈ 175 µM).
In the case of COc1ccc(C2C3=C(CCCC3=O)OC3=C2C(=O)CCC3)cc1, the MIC (Escherichia coli) is reported as over 128 µg/mL, the MIC (Pseudomonas aeruginosa) is reported as over 128 µg/mL and the MIC (Bacillus subtilis) is reported as over 128 µg/mL. The MIC [1] was 16 µg/mL (≈ 49.3 µM) and the MIC [2] was 16 µg/mL (≈ 49.3 µM).
For CC[C@@H](CO)NCCN[C@@H](CC)CO [ETHAMBUTOL], the MIC [1] was 1.25 µg/mL (≈ 6.12 µM), the MIC [3] was 8 µg/mL (≈ 39.2 µM) and the Activity [4] was “Active”. It also gave an MIC [2] of 0.019 µg/mL (≈ 0.093 µM).
With O=C1CCCC2=C1C(c1cccc([N+](=O)[O-])c1)C1=C(CCCC1=O)O2 the MIC (Escherichia coli) was over 128 µg/mL, the MIC (Pseudomonas aeruginosa) was over 128 µg/mL and the MIC (Bacillus subtilis) was over 128 µg/mL. It also gave an MIC [1] of 64 µg/mL (≈ 189 µM) and an MIC [2] of 64 µg/mL (≈ 189 µM).
O=C1CCCC2=C1C(c1cccc(O)c1)C1=C(CCCC1=O)O2 was tested, and the MIC (Escherichia coli) was over 128 µg/mL, the MIC (Pseudomonas aeruginosa) was over 128 µg/mL and the MIC (Bacillus subtilis) was over 128 µg/mL. For the same compound, the MIC [1] was 64 µg/mL (≈ 206 µM) and the MIC [2] was 64 µg/mL (≈ 206 µM).
CO[C@H]1/C=C/O[C@@]2(C)Oc3c(C)c(O)c4c(O)c(c(/C=N/N5CCN(C)CC5)c(O)c4c3C2=O)NC(=O)/C(C)=C\C=C\[C@H](C)[C@H](O)[C@@H](C)[C@@H](O)[C@@H](C)[C@H](OC(C)=O)[C@@H]1C [RIFAMPIN] was tested, and the MIC [3] was 8 µg/mL (≈ 9.72 µM).
CC1(C)CC(=O)C2=C(C1)OC(N)=C(C#N)C2c1ccc(O)cc1 (configuration not stated) showed an MIC [1] of over 64 µg/mL.
Work on C[C@H]1COc2c(N3CCN(C)CC3)c(F)cc3c(=O)c(C(=O)O)cn1c23 [LEVOFLOXACIN ANHYDROUS] yielded an MIC [1] of 2.5 µg/mL (≈ 6.92 µM) and an MIC [2] of 0.039 µg/mL (≈ 0.108 µM).
O=C1CCCC2=C1C(c1cccc(Cl)c1)C1=C(CCCC1=O)O2 showed an MIC (Escherichia coli) of over 128 µg/mL, an MIC (Pseudomonas aeruginosa) of over 128 µg/mL and an MIC (Bacillus subtilis) of over 128 µg/mL. It also gave an MIC [1] of 64 µg/mL (≈ 195 µM) and an MIC [2] of 64 µg/mL (≈ 195 µM).
For COc1ccc(C2C3=C(CCCC3=O)OC3=C2C(=O)CCC3)cc1O, the MIC (Escherichia coli) was over 128 µg/mL, the MIC (Pseudomonas aeruginosa) was over 128 µg/mL and the MIC (Bacillus subtilis) was over 128 µg/mL. For the same compound, the MIC [1] was 64 µg/mL (≈ 188 µM) and the MIC [2] was 64 µg/mL (≈ 188 µM).
Work on CC1(C)CC(=O)C2=C(C1)OC1=C(C(=O)CC(C)(C)C1)C2c1cccc(O)c1 yielded an MIC (Escherichia coli) of over 128 µg/mL, an MIC (Pseudomonas aeruginosa) of over 128 µg/mL and an MIC (Bacillus subtilis) of over 128 µg/mL. The MIC [1] was 64 µg/mL (≈ 175 µM) and the MIC [2] was 64 µg/mL (≈ 175 µM).
O=C1CCCC2=C1C(c1cc(O)ccc1O)C1=C(CCCC1=O)O2 showed an MIC (Escherichia coli) of over 128 µg/mL, an MIC (Pseudomonas aeruginosa) of over 128 µg/mL and an MIC (Bacillus subtilis) of over 128 µg/mL. It also gave an MIC [1] of 64 µg/mL (≈ 196 µM) and an MIC [2] of 64 µg/mL (≈ 196 µM).
With COc1cccc(C2C3=C(CC(C)(C)CC3=O)OC3=C2C(=O)CC(C)(C)C3)c1 the MIC (Escherichia coli) was over 128 µg/mL, the MIC (Pseudomonas aeruginosa) was over 128 µg/mL and the MIC (Bacillus subtilis) was over 128 µg/mL. For the same compound, the MIC [1] was 64 µg/mL (≈ 168 µM) and the MIC [2] was 64 µg/mL (≈ 168 µM).
For O=C1CCCC2=C1C(c1ccccc1)C1=C(CCCC1=O)O2, the MIC (Escherichia coli) was over 128 µg/mL, the MIC (Pseudomonas aeruginosa) was over 128 µg/mL and the MIC (Bacillus subtilis) was over 128 µg/mL. It also gave an MIC [1] of 64 µg/mL (≈ 217 µM) and an MIC [2] of 64 µg/mL (≈ 217 µM).
In the case of NNC(=O)c1ccncc1 [ISONIAZID], the MIC [1] is reported as 0.625 µg/mL (≈ 4.56 µM), the MIC [3] is reported as 8 µg/mL (≈ 58.3 µM) and the Activity [4] is reported as “Active”. It also gave an MIC [2] of 0.019 µg/mL (≈ 0.139 µM).
COc1cc(C2C3=C(CCCC3=O)OC3=C2C(=O)CCC3)ccc1O gave an MIC (Escherichia coli) of over 128 µg/mL, an MIC (Pseudomonas aeruginosa) of over 128 µg/mL and an MIC (Bacillus subtilis) of over 128 µg/mL. The MIC [1] was 64 µg/mL (≈ 188 µM) and the MIC [2] was 64 µg/mL (≈ 188 µM).
O=C1CCCC2=C1C(c1cccc(Br)c1)C1=C(CCCC1=O)O2 was tested, and the MIC (Escherichia coli) was over 128 µg/mL, the MIC (Pseudomonas aeruginosa) was over 128 µg/mL and the MIC (Bacillus subtilis) was over 128 µg/mL. It also gave an MIC [1] of 64 µg/mL (≈ 171 µM) and an MIC [2] of 64 µg/mL (≈ 171 µM).
